Experimental findings from patent US8575188B2 (priority 2009, dated 2013) are described below.

In the assay the test system is human non small cell lung cancer cell line H460. Briefly: Antiproliferation (cytotoxicity) assay, 72 hrs under air, Alamar Blue. Format: cell-based. Conditions: Homo sapiens, NCI-H460; H460, inhibition of proliferation, 72 hrs under air; read-out: IC50. Background: Alamar Blue is a resazurin reagent that responds to reducing activity.

Consider `C=CCO/N=C/c1c2c(nc3ccccc13)-c1c([N+](=O)[O-])c3c(c(=O)n1C2)COC(=O)[C@]3(O)CC` [TH1771], for which the concentration for half-maximal inhibition (IC50) was > 10000 nM.
Consider `CC[C@@]1(O)C(=O)OCc2c1c(N)c1n(c2=O)Cc2c-1nc1ccccc1c2/C=N/NCCO` [TH1778], for which the IC50 amounted to 270 nM.
In the case of `CCOC(=O)CCc1c2c(nc3ccccc13)-c1c(N)c3c(c(=O)n1C2)COC(=O)[C@]3(O)CC` [TH1787] it was 12 nM; in that of `CC[C@@]1(O)C(=O)OCc2c1c([N+](=O)[O-])c1n(c2=O)Cc2c-1nc1ccccc1c2CC[Si](C)(C)O` [TH1627], > 1000 nM; in that of `CC[C@@]1(O)C(=O)OCc2c1c([N+](=O)[O-])c1n(c2=O)Cc2c-1nc1ccccc1c2/C=C/C(=O)OC(C)(C)C` [TH1786], 21000 nM.
Turning to `CC[C@@]1(O)C(=O)OCc2c1c(N)c1n(c2=O)Cc2c-1nc1ccccc1c2/C=N/N(CCO)C(=O)C(C)C` [TH1796], the IC50 stood at 12 nM.
The figure for `CC[C@@]1(O)C(=O)OCc2c1c([N+](=O)[O-])c1n(c2=O)Cc2c-1nc1ccccc1c2/C=N/OCCN1CCCCC1` [TH1524] is > 1000 nM; for `CC[C@@]1(O)C(=O)OCc2c1c(N)c1n(c2=O)Cc2c-1nc1ccccc1c2/C=C/C(=O)OC(C)(C)C` [TH1811] it is 14 nM.
As to `CC[C@@]1(O)C(=O)OCc2c1c([N+](=O)[O-])c1n(c2=O)Cc2c-1nc1ccccc1c2/C=N/OCC1CO1` (stereo partly drawn) [TH1776], the 50% inhibitory concentration (IC50) worked out at 3200 nM.
As to `CC[C@@]1(O)C(=O)OCc2c1c(N)c1n(c2=O)Cc2c-1nc1ccccc1c2/C=N/N(CCO)C(=O)C(C)(C)C` [TH1793], the half-maximal inhibitory concentration (IC50) stood at 19 nM.
Consider `CC[C@@]1(O)C(=O)OCc2c1c(N)c1n(c2=O)Cc2c-1nc1ccccc1c2CNCC(C)(C)C` [TH1814], for which the concentration for half-maximal inhibition (IC50) came to 15 nM.
For `CC[C@@]1(O)C(=O)OCc2c1c(N)c1n(c2=O)Cc2c-1nc1ccccc1c2/C=N/N(CCO)C(C)=O` [TH1783], the half-inhibitory concentration (IC50) was 460 nM.
In the case of `CC[C@@]1(O)C(=O)OCc2c1c([N+](=O)[O-])c1n(c2=O)Cc2c-1nc1ccccc1c2/C=N/N(CCOS(C)(=O)=O)S(C)(=O)=O` [TH1798], the IC50 was 2500 nM.
The figure for `CC[C@@]1(O)C(=O)OCc2c1c([N+](=O)[O-])c1n(c2=O)Cc2c-1nc1ccccc1c2/C=C/C(C)=O` [TH1784] is 4900 nM.
On to `CC[C@@]1(O)C(=O)OCc2c1c([N+](=O)[O-])c1n(c2=O)Cc2c-1nc1cccc([N+](=O)[O-])c1c2/C=N/OCCN1CCCCC1` [TH1525], for which the concentration for half-maximal inhibition (IC50) was > 1000 nM.
As to `CC[C@@]1(O)C(=O)OCc2c1c(N)c1n(c2=O)Cc2c-1nc1ccccc1c2CC[Si](C)(C)C` [TH1631], the IC50 amounted to 7.4 nM.
In the case of `CC[C@@]1(O)C(=O)OCc2c1c([N+](=O)[O-])c1n(c2=O)Cc2c-1nc1ccccc1c2/C=N/N(CCO)C(=O)C(C)(C)C` [TH1791] it was 4000 nM; in that of `CC[C@@]1(O)C(=O)OCc2c1c([N+](=O)[O-])c1n(c2=O)Cc2c-1nc1ccccc1c2C=O` [TH1762, 7-formyl-14-nitro camptothecin], 7200 nM; in that of `CC[C@@]1(O)C(=O)OCc2c1c(N)c1n(c2=O)Cc2c-1nc1ccccc1c2/C=N/N1CCOCC1` [TH1777], 16 nM.
As to `CC[C@@]1(O)C(=O)OCc2c1c([N+](=O)[O-])c1n(c2=O)Cc2c-1nc1ccccc1c2/C=N/N1CCOCC1` [TH1767], the concentration for half-maximal inhibition (IC50) was 6000 nM.
For the compound `CC[C@@]1(O)C(=O)OCc2c1c(N)c1n(c2=O)Cc2c-1nc1ccccc1c2/C=N/N(CCOS(C)(=O)=O)S(C)(=O)=O` [TH1799], the IC50 is 8.1 nM.
For the compound `CC[C@@]1(O)C(=O)OCc2c1c([N+](=O)[O-])c1n(c2=O)Cc2c-1nc1ccccc1c2CC(C)(C)C` [TH1644], the half-inhibitory concentration (IC50) came out at 800 nM.
Turning to `CC[C@@]1(O)C(=O)OCc2c1c([N+](=O)[O-])c1n(c2=O)Cc2c-1nc1ccccc1c2C#N` [TH1766], the half-inhibitory concentration (IC50) is > 1000 nM.
For `CC[C@@]1(O)C(=O)OCc2c1c([N+](=O)[O-])c1n(c2=O)Cc2c-1nc1ccccc1c2/C=N/c1c(F)c(F)c(O)c(F)c1F` [TH1805], the IC50 amounted to 49000 nM.

Broadly, the IC50 is the concentration that inhibits the measured activity by half.
